Experimental data reported in US20240216344A1, “THIAZOLIDINEDIONE ANALOGS FOR THE TREATMENT OF NAFLD AND METABOLIC DISEASES” (Cirius Therapeutics, Inc., priority 2019, published 2024).

Test system: patients with NASH
Test: Meta-analysis of 17 NASH clinical trials: change from baseline in histological components and endpoint counts
Type: in vivo, human
Settings: EMMINENCE trial
Experimental: Meta-regressions of NASH clinical trials were performed to examine associations between biomarker and histological changes within treatment groups, and to additionally examine associations between treatment effects on biomarkers and on liver histology. Trials that met the following criteria were included: • Randomized controlled clinical trial • Paired biopsies performed at baseline and follow-up, scored using the NASH CRN system.
• Published results at baseline, follow-up, or changes from baseline for any the following liver injury markers or biomarkers: alanine aminotransferase (ALT), aspartate aminotransferase (AST), alkaline phosphatase, hemoglobin A1c (HbA1c), gamma-glutamyltransferase (GGT), insulin, cytokeratin-18 (CK-18), or Enhanced Liver Fibrosis (ELF) score. Variables selected were based on variables whose change was commonly reported in multiple studies. • Changes in histological scores for ballooning, inflammation, steatosis, and fibrosis, or the pre-determined endpoints of NASH resolution without worsening fibrosis or improvement in fibrosis with no worsening of NASH.
All results from a search of PubMed for the keywords (“nonalcoholic steatohepatitis” or “non-alcoholic steatohepatitis”) and (“clinical trial” or “randomized”) and filtered for “Clinical Trial” were reviewed. EudraCT and ClinicalTrials.gov were searched for the keyword “nonalcoholic steatohepatitis” with results further filtered for phase 2 or 3, interventional, terminated or completed trials. These three sources returned 265 (PubMed), 153 (ClinicalTrials.gov), and 56 (EudraCT) results, which were each individually reviewed for inclusion in the analysis. Data extracted by one analyst from each source that included means and SDs at baseline, end of study, and changes from baseline to end of study for continuous variables were verified and corrected by a second analyst. Where SDs were not available, any provided estimate of variation was used to derive the SD where possible; a plot-digitizer program was used where data were presented in figures only. Data for dichotomous endpoints were extracted as the number of subjects with the event and corresponding sample size.
All studies included in the current meta-analysis used the NASH CRN histological scoring system for the scoring of the liver biopsy components. The two dichotomous endpoints considered were based on the currently approvable endpoints per FDA guidelines: NASH resolution without worsening of fibrosis, and fibrosis improvement without worsening of NASH.
Random effects weighted least squares meta-regressions with inverse variance weighting were used to examine the association of changes in ALT, AST, CK-18, HbA1c, fasting insulin levels, ELF, alkaline phosphatase and GGT with biopsy outcomes. CK-18[M30] was measured in all studies except EMMINENCE where CK-18[M651 was reported. These associations were assessed at an individual cohort level (within treatment group), as well as based on the treatment effect. Percent change from baseline in liver injury makers and biomarkers was used as the predictor when examining the associations in the individual cohorts with outcomes while the treatment ratio, the ratio of active to placebo with respect to the relative changes from baseline, was used as the predictor when assessing the association with the treatment effect on outcomes. Standardized mean changes (mean/SD) or standardized mean treatment differences (mean difference/pooled SD) were used for continuous outcomes and Freeman-Tukey double arcsine transformed proportions or log odds ratios were used for dichotomous outcomes. Meta-regression results were computed using the metafor package available in R. P-values <0.05 were considered statistically significant.

COc1cccc(C(=O)COc2ccc(CC3SC(=O)NC3=O)cc2)c1 (stereo not drawn) [MSDC-0602K]
Change from Baseline, mean: Ballooning (MSDC-0602K 62.5 mg): −0.36
Change from Baseline, mean: Fibrosis (MSDC-0602K 62.5 mg): 0.06
Change from Baseline, mean: Inflammation (MSDC-0602K 62.5 mg): −0.08
Change from Baseline, mean: Steatosis (MSDC-0602K 62.5 mg): −0.57
Fibrosis Improvement (MSDC-0602K 62.5 mg): 20/99
NASH Resolution (MSDC-0602K 62.5 mg): 17/99
Change from Baseline, mean: Ballooning (MSDC-0602K 125 mg): −0.42
Change from Baseline, mean: Fibrosis (MSDC-0602K 125 mg): −0.12
Change from Baseline, mean: Inflammation (MSDC-0602K 125 mg): −0.22
Change from Baseline, mean: Steatosis (MSDC-0602K 125 mg): −0.51
Fibrosis Improvement (MSDC-0602K 125 mg): 23/98
NASH Resolution (MSDC-0602K 125 mg): 23/98
Change from Baseline, mean: Ballooning (MSDC-0602K 250 mg): −0.38
Change from Baseline, mean: Fibrosis (MSDC-0602K 250 mg): −0.06
Change from Baseline, mean: Inflammation (MSDC-0602K 250 mg): −0.12
Change from Baseline, mean: Steatosis (MSDC-0602K 250 mg): −0.67
Fibrosis Improvement (MSDC-0602K 250 mg): 25/101
NASH Resolution (MSDC-0602K 250 mg): 27/101
